Test results from patent US4388235A, “Synthesis of peptides” (Armour Pharmaceutical Company, priority 1982, dated 1983).
Positions of bridges follow the written chain, without caps; N, C: chain ends. Residues, ends and D or L forms follow the SMILES beside them.

Assay: biological potency assay of the purified product (MRC units)
Type: in vivo
Settings: freeze-dried product of Example 1

**Q.** With `CC(C)C[C@H](NC(=O)[C@H](CCCCN)NC(=O)CNC(=O)[C@H](CC(C)C)NC(=O)[C@@H](NC(=O)[C@@H]1CSSC[C@H](N)C(=O)N[C@@H](CO)C(=O)N[C@@H](CC(N)=O)C(=O)N[C@@H](CC(C)C)C(=O)N[C@@H](CO)C(=O)N[C@@H]([C@@H](C)O)C(=O)N1)C(C)C)C(=O)N[C@@H](CO)C(=O)N[C@@H](CCC(N)=O)C(=O)N[C@@H](CCC(=O)O)C(=O)N[C@@H](Cc1c[nH]cn1)C(=O)N[C@@H](CCCCN)C(=O)N[C@@H](CC(C)C)C(=O)N[C@@H](CCC(N)=O)C(=O)N[C@H](C(=O)N[C@@H](Cc1ccc(O)cc1)C(=O)N1CCC[C@H]1C(=O)N[C@@H](CCCNC(=N)N)C(=O)N[C@H](C(=O)N[C@@H](CC(N)=O)C(=O)N[C@H](C(=O)NCC(=O)N[C@@H](CO)C(=O)NCC(=O)N[C@H](C(=O)N1CCC[C@H]1C(N)=O)[C@@H](C)O)[C@@H](C)O)[C@@H](C)O)[C@@H](C)O` [des Leu^16 -SCT, Des-Leu^16 -salmon calcitonin] (H-CSNLSTCVLGKLSQEHKLQTYPRTNTGSGTP-NH2; disulfide 1-7) as the molecule, how does the assayed potency read?
**A.** The assayed potency was 580 MRC units per mg.
